Columns and labels:
Conditions in all cases: 48 h
NOMO1 [1] = assay: AUC of viability dose-response curve (% viability x log10 dose units); higher = less sensitive
Outline: (§1)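 Area under the curve was integrated by trapezoidal rule from a log-logistic fit of normalised viability, with curves exceeding full viability scaled and quality-control failures removed. The fit had four parameters over log10 doses. Viability came from CellTiter-Glo One luminescence, normalised per plate to DMSO and cell-free wells, after leukemia cells adapted to each medium (500 or 1000 cells/well, 1536-well plates) were exposed to library compounds in DMSO for 48 h at 37°C. The 11 threefold doses ran from 47 μM to 0.79 nM.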

SEM cells [2] = assay: as above
Outline: as §1

P12-Ichikawa [3] = assay: as above
Outline: as §1

SEM cells [4] = assay: cell viability relative to DMSO control; higher = less cytotoxic
Outline: (§2)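 Leukemia cells (NOMO1 or SEM, 500 cells/well; P12-Ichikawa, 1000 cells/well) were seeded in 5 μl in 1536-well plates after at least four passages of adaptation to each medium. They received library compounds in DMSO by pin dosing, 11 threefold points from 47 μM to 0.79 nM. Luminescence with CellTiter-Glo One was read after 48 h at 37°C. Viability is stated per plate relative to DMSO wells, with cell-free wells as background.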

NOMO1 [5] = assay: as above
Outline: as §2

P12-Ichikawa [6] = assay: as above
Outline: as §2

OC1=CC=C(C=C1)\C2=C(O)\C(=O)C3=C(O2)C=C(O)C=C3O
AUC of viability dose-response curve
Conditions	NOMO1 [1]	P12-Ichikawa [3]	SEM cells [2]
HPLM + 10% dialyzed FBS	443	465	466
RPMI 5 mM glucose + 10% FBS	458	437	469
RPMI 5 mM glucose + 10% dialyzed FBS	466	449	470

SEM cells [4], RPMI 5 mM glucose + 10% FBS
Conditions	cell viability [%]
0.000781 µM	119
0.00234 µM	100
0.00702 µM	116
0.0211 µM	127
0.0632 µM	127
0.19 µM	133
0.569 µM	135
1.71 µM	128
5.12 µM	127
15.4 µM	123
46.1 µM	87.2

CC(C)CN(C[C@@H](O)[C@H](Cc1ccccc1)NC(=O)O[C@H]1CCOC1)[S+](=O)([O-])c1ccc(N)cc1
AUC of viability dose-response curve
Conditions	NOMO1 [1]	P12-Ichikawa [3]	SEM cells [2]
HPLM + 10% dialyzed FBS	440	396	410
RPMI 5 mM glucose + 10% FBS	453	382	369
RPMI 5 mM glucose + 10% dialyzed FBS	443	362	365

CCCCOc1c(C(=O)c2c(F)cc(C)cc2F)cnc2[nH]ncc12
AUC of viability dose-response curve
Conditions	NOMO1 [1]	P12-Ichikawa [3]	SEM cells [2]
HPLM + 10% dialyzed FBS	460	470	410
RPMI 5 mM glucose + 10% FBS	444	458	410
RPMI 5 mM glucose + 10% dialyzed FBS	424	435	413

cell viability [%]
Conditions	NOMO1 [5]	P12-Ichikawa [6]	SEM cells [4]
HPLM + 10% dialyzed FBS, 0.000781 µM	95.9	97.5	107
HPLM + 10% dialyzed FBS, 0.00234 µM	113	102	111
HPLM + 10% dialyzed FBS, 0.00702 µM	107	104	104
HPLM + 10% dialyzed FBS, 0.0211 µM	103	109	110
HPLM + 10% dialyzed FBS, 0.0632 µM	103	107	115
HPLM + 10% dialyzed FBS, 0.19 µM	109	89.6	108
HPLM + 10% dialyzed FBS, 0.569 µM	103	104	108
HPLM + 10% dialyzed FBS, 1.71 µM	119	107	92
HPLM + 10% dialyzed FBS, 5.12 µM	89.1	102	70.4
HPLM + 10% dialyzed FBS, 15.4 µM	96.2	91.3	64.1
HPLM + 10% dialyzed FBS, 46.1 µM	68.9	95.5	30.9
RPMI 5 mM glucose + 10% FBS, 0.000781 µM	89.4	104	104
RPMI 5 mM glucose + 10% FBS, 0.00234 µM	98.2	99	105
RPMI 5 mM glucose + 10% FBS, 0.00702 µM	82.7	107	103
RPMI 5 mM glucose + 10% FBS, 0.0211 µM	96.7	102	113
RPMI 5 mM glucose + 10% FBS, 0.0632 µM	98.7	104	114
RPMI 5 mM glucose + 10% FBS, 0.19 µM	94	108	118
RPMI 5 mM glucose + 10% FBS, 0.569 µM	95.6	103	114
RPMI 5 mM glucose + 10% FBS, 1.71 µM	93.6	105	89.6
RPMI 5 mM glucose + 10% FBS, 5.12 µM	98.9	88.4	60.6
RPMI 5 mM glucose + 10% FBS, 15.4 µM	90.3	94.4	71.8
RPMI 5 mM glucose + 10% FBS, 46.1 µM	79.1	77.9	35.6
RPMI 5 mM glucose + 10% dialyzed FBS, 0.000781 µM	97.6	107	93.2
RPMI 5 mM glucose + 10% dialyzed FBS, 0.00234 µM	96.3	104	96.5
RPMI 5 mM glucose + 10% dialyzed FBS, 0.00702 µM	100	102	96.9
RPMI 5 mM glucose + 10% dialyzed FBS, 0.0211 µM	92.6	104	86.8
RPMI 5 mM glucose + 10% dialyzed FBS, 0.0632 µM	92.7	101	107
RPMI 5 mM glucose + 10% dialyzed FBS, 0.19 µM	85.5	97.4	106
RPMI 5 mM glucose + 10% dialyzed FBS, 0.569 µM	83.1	93.8	104
RPMI 5 mM glucose + 10% dialyzed FBS, 1.71 µM	86.7	94.6	84.4
RPMI 5 mM glucose + 10% dialyzed FBS, 5.12 µM	70.6	78.9	71.6
RPMI 5 mM glucose + 10% dialyzed FBS, 15.4 µM	88.4	89.6	56.8
RPMI 5 mM glucose + 10% dialyzed FBS, 46.1 µM	84.3	81.3	25.3

CCN[C@H]1C[C@H](C)[S+](=O)([O-])c2sc([S+](N)(=O)[O-])cc21
AUC of viability dose-response curve
Conditions	HPLM + 10% dialyzed FBS	RPMI 5 mM glucose + 10% FBS	RPMI 5 mM glucose + 10% dialyzed FBS
NOMO1 [1]	434	452	415
P12-Ichikawa [3]	460	440	471

SEM cells [4], HPLM + 10% dialyzed FBS
Conditions	cell viability [%]
0.000781 µM	137
0.00234 µM	100
0.00702 µM	120
0.0211 µM	126
0.0632 µM	36.4
0.19 µM	129
0.569 µM	135
1.71 µM	126
5.12 µM	52.8
15.4 µM	131
46.1 µM	118

CN1CC(=O)N2[C@H](c3ccc4c(c3)OCO4)c3[nH]c4ccccc4c3C[C@@H]2C1=O
AUC of viability dose-response curve
Conditions	NOMO1 [1]	P12-Ichikawa [3]	SEM cells [2]
HPLM + 10% dialyzed FBS	427	456	466
RPMI 5 mM glucose + 10% FBS	447	440	435
RPMI 5 mM glucose + 10% dialyzed FBS	449	419	461

cell viability [%]
Conditions	NOMO1 [5]	P12-Ichikawa [6]	SEM cells [4]
HPLM + 10% dialyzed FBS, 0.000781 µM	111	100	98.8
HPLM + 10% dialyzed FBS, 0.00234 µM	99.6	99.2	88.6
HPLM + 10% dialyzed FBS, 0.00702 µM	109	100	97.2
HPLM + 10% dialyzed FBS, 0.0211 µM	107	97.9	96.3
HPLM + 10% dialyzed FBS, 0.0632 µM	103	104	98
HPLM + 10% dialyzed FBS, 0.19 µM	94.8	96.6	102
HPLM + 10% dialyzed FBS, 0.569 µM	98.7	101	108
HPLM + 10% dialyzed FBS, 1.71 µM	83.3	91.6	106
HPLM + 10% dialyzed FBS, 5.12 µM	91.5	89.9	93.9
HPLM + 10% dialyzed FBS, 15.4 µM	90.7	89.6	100
HPLM + 10% dialyzed FBS, 46.1 µM	74.8	78.8	85.9
RPMI 5 mM glucose + 10% FBS, 0.000781 µM	97.2	92.4	92.6
RPMI 5 mM glucose + 10% FBS, 0.00234 µM	96.1	96.8	85.3
RPMI 5 mM glucose + 10% FBS, 0.00702 µM	89.1	90.4	85.8
RPMI 5 mM glucose + 10% FBS, 0.0211 µM	88.4	92.6	97.9
RPMI 5 mM glucose + 10% FBS, 0.0632 µM	101	95	102
RPMI 5 mM glucose + 10% FBS, 0.19 µM	101	103	108
RPMI 5 mM glucose + 10% FBS, 0.569 µM	97	90	92.6
RPMI 5 mM glucose + 10% FBS, 1.71 µM	83.9	94.1	88.8
RPMI 5 mM glucose + 10% FBS, 5.12 µM	92.8	82.7	82.1
RPMI 5 mM glucose + 10% FBS, 15.4 µM	97.8	96.9	85.3
RPMI 5 mM glucose + 10% FBS, 46.1 µM	77	79.6	83.5
RPMI 5 mM glucose + 10% dialyzed FBS, 0.000781 µM	107	89.8	94
RPMI 5 mM glucose + 10% dialyzed FBS, 0.00234 µM	93.5	92	88.8
RPMI 5 mM glucose + 10% dialyzed FBS, 0.00702 µM	97.6	92.6	88.3
RPMI 5 mM glucose + 10% dialyzed FBS, 0.0211 µM	98.3	89.6	108
RPMI 5 mM glucose + 10% dialyzed FBS, 0.0632 µM	88.4	90.9	106
RPMI 5 mM glucose + 10% dialyzed FBS, 0.19 µM	103	92.1	69.6
RPMI 5 mM glucose + 10% dialyzed FBS, 0.569 µM	98.9	85.1	105
RPMI 5 mM glucose + 10% dialyzed FBS, 1.71 µM	89	87	113
RPMI 5 mM glucose + 10% dialyzed FBS, 5.12 µM	81.3	83.6	105
RPMI 5 mM glucose + 10% dialyzed FBS, 15.4 µM	109	81	89
RPMI 5 mM glucose + 10% dialyzed FBS, 46.1 µM	79.1	78.5	95.4
